System: Cx-containing gap junctions of RFPEC
Assay: Lucifer Yellow scratch-loading dye transfer assay (gap junction communication)
Format: cell-based, rat
Protocol: Cell Culture. Rat fat pad ECs (RFPEC) at passages 20 to 39 were offspring of cells isolated from rat epididymal fat pad and provided by Dr. Mia Thi of Albert Einstein College of Medicine (Bronx, N.Y.). […] The RFPECs are immortalized, making it possible to use late passages. RFPEC were seeded on 12-14-mm diameter and 0.13-0.17-mm thick glass coverslips at a seeding density of 15,000-20,000 cells/cm^2. Cells were cultured in Dulbecco's Modified Eagle Medium (DMEM, Invitrogen, USA) with 1% penicillin-streptomycin (PS) and 10% fetal bovine serum (FBS, Gibco Life Technologies). Cells were maintained in humidity at 37° C. and 5% CO2. RFPECs reached full confluence in 3 days.
Cultured RFPECs produce thick and robust GCX in this time period. At 3 days post-seeding the RFPECs' culture medium was supplemented with 1% BSA in place of FBS to stabilize the GCX during preservation and immunolabeling (described below). For enzyme treatment experiments, 25 micro-international units per milliliter (μIU/ml) of heparinase III (Hep III; IBEX, Canada) were added to BSA-containing culture media for 2 hours to degrade HS from the GCX [46]. HepIII was washed out, and the wash-out was followed by a 16-hour incubation of RFPECs in regular BSA-containing media. In self-recovery experiments, RFPEC GCX was left to recover for 24 hours after enzyme degradation. The time frame was chosen in accordance with the 20-hour time period that is required for HS restoration to occur on the surface of ECs. For HS recovery experiments, exogenous HS and/or S1P were applied for 16 hours to accommodate the communication test as an assessment of functional glycocalyx recovery. […] After HS was degraded with HepIII, it was replaced by a 16-hour feeding of RFPECs with 59 μg/ml exogenous porcine mucosal HS (Celsus, Cincinnati, Ohio), based on published serum concentration of HS [43]. In sphingosine-1-phosphate experiments, culture media containing enzyme was substituted for media containing either 10 μM of S1P (Sigma-Aldrich) or a combination of 59 μg/ml of HS and 10 μM of S1P for 16 hours after enzyme degradation.
Dye transfer assay, fluorescence microscopy and image analysis. Gap junction functionality was assessed by loading Lucifer Yellow in RFPECs, using a scratch technique, and observing the extent of Lucifer Yellow transfer from loaded cells to neighboring cells (FIG. 7B). Lucifer Yellow has a molecular weight of 457.3 and can only enter cells via broken membranes or via gap junctions. The scratch loading technique involved pre-incubation of RFPECs (for 1 minute) with calcium- and magnesium-free Hanks' Balanced Salt Solution (HBSS; Life Technology) containing 5 mg/ml Lucifer Yellow dye (Life Technology). A 5-μm diameter tip scribe (Ted Pella, Inc, USA) was then used to carefully create a straight scratch in the RFPEC monolayer and to allow the dye to enter the scratched cells. After the dye was loaded, it spread via open gap junctions to adjacent intact cells, with the extent of Lucifer Yellow spread reaching a plateau by 10 minutes after loading. At that point, excess dye was washed out and RFPECs were imaged at 10× magnification (dry objective) using a Zeiss Observer Z1 fluorescence microscope. From recorded images of dye transfer after scratch loading, ImageJ randomly selected dye spread locations that would be quantified along the scratch. At those random locations, lines perpendicular to the scratch axis were drawn, and the intact fluorescent cells (scratched cells excluded) were counted. […]

## heparan sulfate [HS]
RFPEC, Hep III, then 16 h with or without 59 μg/ml HS and/or 10 μM S1P, mean±SEM
  Lucifer Yellow dye spread, neighboring cells receiving dye per scratch-loaded cell: 1.03±0.07 cells
After Hep III, HS 59 μg/ml, S1P 10 μM
  Lucifer Yellow dye transfer, result in words (FIG. 4 legend): Not much Lucifer Yellow dye transfer improvement

From patent US20200023001A1, “GlycoFix (Structurally And Functionally Repaired Endothelial Glycocalyx)” (Northeastern University, priority 2018, published 2020)
